Experimental data from PubChem BioAssay (NCI).
“And” between values parts separate entries of the source, which are not always exact repeats. Equal values may be shown once.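 All cell lines were grown in 96-well plates and treated with compound for 48 hours. Abbreviation: GI50, concentration required for 50% inhibition of growth. TGI marks complete inhibition of growth.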

Experiments:
Test in all cases: NCI tumour cell line growth inhibition, 48 h
MCF7 breast = test system: MCF7 breast
SK-OV-3 ovarian = test system: SK-OV-3 ovarian
NCI-H23 lung = test system: NCI-H23 lung
HCT-15 colon = test system: HCT-15 colon
P388/ADR leukemia = test system: P388/ADR leukemia
SNB-19 CNS = test system: SNB-19 CNS
NCI/ADR-RES ovarian = test system: NCI/ADR-RES ovarian
DLD-1 colon = test system: DLD-1 colon
HOP-92 NSCLC = test system: HOP-92 NSCLC
SF-295 CNS = test system: SF-295 CNS
HT29 colon = test system: HT29 colon
SF-268 CNS = test system: SF-268 CNS
SNB-75 CNS = test system: SNB-75 CNS
RXF 393 renal = test system: RXF 393 renal
LOX IMVI melanoma = test system: LOX IMVI melanoma
IGROV1 ovarian = test system: IGROV1 ovarian
NCI-H522 lung = test system: NCI-H522 lung
U251 CNS = test system: U251 CNS
HCT-116 colon = test system: HCT-116 colon
KM20L2 colon = test system: KM20L2 colon
DMS 273 small cell lung = test system: DMS 273 small cell lung
MALME-3M melanoma = test system: MALME-3M melanoma
EKVX NSCLC = test system: EKVX NSCLC
NCI-H226 lung = test system: NCI-H226 lung
UO-31 renal = test system: UO-31 renal
SK-MEL-28 melanoma = test system: SK-MEL-28 melanoma
HOP-18 NSCLC = test system: HOP-18 NSCLC
SN12K1 renal = test system: SN12K1 renal
HL-60(TB) leukemia = test system: HL-60(TB) leukemia
XF 498 CNS = test system: XF 498 CNS
SK-MEL-2 melanoma = test system: SK-MEL-2 melanoma
SF-539 CNS = test system: SF-539 CNS
OVCAR-4 ovarian = test system: OVCAR-4 ovarian
HOP-62 NSCLC = test system: HOP-62 NSCLC
DMS 114 small cell lung = test system: DMS 114 small cell lung
A498 renal = test system: A498 renal
NCI-H460 lung = test system: NCI-H460 lung
UACC-62 melanoma = test system: UACC-62 melanoma
KM12 colon = test system: KM12 colon
K-562 leukemia = test system: K-562 leukemia
MOLT-4 leukemia = test system: MOLT-4 leukemia
A549 NSCLC = test system: A549 NSCLC
UACC-257 melanoma = test system: UACC-257 melanoma
P388 leukemia = test system: P388 leukemia
SN12C renal = test system: SN12C renal
OVCAR-8 ovarian = test system: OVCAR-8 ovarian
HCC-2998 colon = test system: HCC-2998 colon
SW-620 colon = test system: SW-620 colon
OVCAR-5 ovarian = test system: OVCAR-5 ovarian
OVCAR-3 ovarian = test system: OVCAR-3 ovarian
COLO 205 colon = test system: COLO 205 colon
SK-MEL-5 melanoma = test system: SK-MEL-5 melanoma

CC1=C(C)C(=O)O[C@@H]([C@](C)(O)[C@]2(O)CC[C@@]3(O)[C@@H]4C[C@H]5O[C@]56[C@@H](O)C=CC(=O)[C@]6(C)[C@H]4CC[C@]23C)C1 was tested, and the GI50 (MCF7 breast) was 0.164 µM, the TGI (MCF7 breast) was 2.94 µM and 3.41 µM and the TGI (SK-OV-3 ovarian) was 14.7 µM and 20.4 µM. For the same compound, the GI50 (NCI-H23 lung) was 0.38 µM and 0.205 µM, the TGI (NCI-H23 lung) was 4.63 µM and 1.29 µM and the GI50 (HCT-15 colon) was 0.169 µM. For the same compound, the TGI (HCT-15 colon) was 2.87 µM and 3.02 µM, the GI50 (P388/ADR leukemia) was 2.5 µM and 0.487 µM and the TGI (P388/ADR leukemia) was 98.8 µM and 250 µM. For the same compound, the TGI (SNB-19 CNS) was 31.1 µM, the GI50 (NCI/ADR-RES ovarian) was 9.65 µM and 6.24 µM and the TGI (NCI/ADR-RES ovarian) was 131 µM and 57.5 µM. For the same compound, the GI50 (DLD-1 colon) was 0.666 µM and 0.162 µM, the TGI (DLD-1 colon) was 3.36 µM and 3.89 µM and the TGI (HOP-92 NSCLC) was 0.345 µM. The TGI (SF-295 CNS) was 19.5 µM, the TGI (HT29 colon) was 5.35 µM and the GI50 (SF-268 CNS) was 1.3 µM and 0.381 µM. For the same compound, the TGI (SNB-75 CNS) was 0.884 µM, the GI50 (RXF 393 renal) was 0.21 µM and 0.0646 µM and the TGI (RXF 393 renal) was 0.575 µM and 0.516 µM. The TGI (LOX IMVI melanoma) was 2.64 µM, the TGI (IGROV1 ovarian) was 9.53 µM and 6.51 µM and the GI50 (NCI-H522 lung) was 0.0804 µM and 0.0721 µM. The TGI (NCI-H522 lung) was 2.16 µM and 1 µM, the GI50 (U251 CNS) was 2.51 µM and the TGI (U251 CNS) was 6.71 µM and 6.54 µM. For the same compound, the TGI (HCT-116 colon) was 2.88 µM, the GI50 (KM20L2 colon) was 0.335 µM and 0.125 µM and the TGI (KM20L2 colon) was 4 µM and 1.35 µM. The GI50 (DMS 273 small cell lung) was 1.5 µM and 0.252 µM, the TGI (DMS 273 small cell lung) was 5.32 µM and 3.13 µM and the GI50 (MALME-3M melanoma) was 0.411 µM. The TGI (MALME-3M melanoma) was 2.27 µM and 2.66 µM, the GI50 (EKVX NSCLC) was 2.5 µM and 0.404 µM and the TGI (EKVX NSCLC) was 3.36 µM and 1.76 µM. The TGI (NCI-H226 lung) was 22 µM, the TGI (UO-31 renal) was 6.36 µM and the GI50 (SK-MEL-28 melanoma) was 0.606 µM and 0.228 µM. The TGI (SK-MEL-28 melanoma) was 5.86 µM and 3.44 µM, the TGI (HOP-18 NSCLC) was 2.44 µM and the GI50 (SN12K1 renal) was 1.4 µM and 5.89 µM. For the same compound, the TGI (SN12K1 renal) was 6.39 µM and 21.6 µM, the GI50 (HL-60(TB) leukemia) was 0.0665 µM and 0.053 µM and the GI50 (XF 498 CNS) was 0.082 µM. The TGI (XF 498 CNS) was 0.819 µM and 0.8 µM, the GI50 (SK-MEL-2 melanoma) was 0.385 µM and the TGI (SK-MEL-2 melanoma) was 1.65 µM and 2.56 µM. For the same compound, the TGI (SF-539 CNS) was 6.13 µM, the GI50 (OVCAR-4 ovarian) was 0.0878 µM and 0.43 µM and the TGI (OVCAR-4 ovarian) was 3.08 µM and 1 µM. The GI50 (HOP-62 NSCLC) was 1.28 µM, the TGI (HOP-62 NSCLC) was 11.4 µM and 14.6 µM and the TGI (DMS 114 small cell lung) was 0.588 µM and 0.567 µM. The GI50 (A498 renal) was 1.12 µM and 0.376 µM, the TGI (A498 renal) was 11.1 µM and 2.08 µM and the GI50 (NCI-H460 lung) was 2 µM. The TGI (NCI-H460 lung) was 9.22 µM and 9.66 µM, the GI50 (UACC-62 melanoma) was 0.288 µM and 0.0848 µM and the TGI (UACC-62 melanoma) was 3.41 µM and 3 µM. The GI50 (KM12 colon) was 0.95 µM and 0.637 µM, the TGI (KM12 colon) was 6.73 µM and 4.57 µM and the GI50 (K-562 leukemia) was 0.126 µM and 0.0515 µM. For the same compound, the TGI (K-562 leukemia) was 2.62 µM and 15 µM, the GI50 (MOLT-4 leukemia) was 0.0688 µM and 0.177 µM and the TGI (A549 NSCLC) was 24 µM and 30.9 µM. For the same compound, the TGI (UACC-257 melanoma) was 3.84 µM, the GI50 (P388 leukemia) was 0.17 µM and 0.0616 µM and the TGI (SN12C renal) was 6.59 µM. It also gave a GI50 (OVCAR-8 ovarian) of 0.155 µM, a TGI (OVCAR-8 ovarian) of 4.2 µM and a TGI (HCC-2998 colon) of 5.76 µM. The GI50 (SW-620 colon) was 0.266 µM and 0.0856 µM, the TGI (SW-620 colon) was 0.787 µM and 0.574 µM and the GI50 (OVCAR-5 ovarian) was 3.55 µM and 1.47 µM. For the same compound, the TGI (OVCAR-5 ovarian) was 8.44 µM and 5.88 µM, the GI50 (OVCAR-3 ovarian) was 0.136 µM and 0.0594 µM and the TGI (OVCAR-3 ovarian) was 1.64 µM and 0.359 µM. The GI50 (COLO 205 colon) was 0.0847 µM and 0.0461 µM, the TGI (COLO 205 colon) was 0.436 µM and 0.255 µM and the TGI (SK-MEL-5 melanoma) was 2.18 µM.
